According to US4250170A, “Antibacterial agents Bu-2349A and B and method of using same” (Bristol-Myers Company, priority 1979, dated 1981):
Converted amounts (≈) assume the structure as drawn. Where two headings read alike, the source gives them in different places.

What was measured:
Format in all cases: cell-based
[1] = test system: Bacillus subtilis PCI 219 (Bs-1); test: MIC, two-fold agar dilution; settings: 18 h
Experimental: (§1) The minimum inhibitory concentrations (MIC) of Bu-2349A and B were determined against a wide variety of bacteria by the two-fold agar dilution method. Mueller-Hinton agar medium was generally used for the determination of bacterial MIC except for species of Streptococcus, Neisseria and Hemophilus for which Gonococcus agar medium (GC agar, Nissui Co., Tokyo) was used. Gifu anaerobe agar medium (GAM agar, Eiken Co., Tokyo) was used for anaerobic bacteria. The MIC's were determined after overnight incubation at 37° C. with an initial inoculum equivalent to a 10^-4 dilution of an 18-hour culture for the aerobic and anaerobic bacteria, except for Streptococcus, Neisseria and Hemophilus for which a 10^-2 dilution was used.
(§2) The influence of inoculum size on MIC was tested on Mueller-Hinton agar using an inoculum of […], 10^-2 or 10^-4 dilution of the overnight culture of test organisms.
(§3) The effect of media pH on the MIC's of Bu-2349A was determined at three pH levels (6, 7 and 8) using Mueller-Hinton agar.
(§4) The media effect on the MIC's of Bu-2349A was tested using four kinds of assay media: Mueller-Hinton agar (MHA), nutrient agar (NA), heart infusion agar (HIA) and brain heart infusion agar (BHIA). The pH was adjusted at 7 and a 10^-4 dilution of overnight culture was used for the inoculum.

[2] = test system: Escherichia coli Juhl (Ec-3); test: MIC, two-fold agar dilution; settings: 18 h
Experimental: as §1, §2, §3, §4

Proteus mirabilis (Pm-1) = test: MIC, two-fold agar dilution
Experimental: as §1, §2, §3, §4

Proteus morganii (Pg-1) = test: MIC, two-fold agar dilution; settings: Morganella morganii, 18 h
Experimental: as §1, §2, §3, §4

[3] = test system: Pseudomonas aeruginosa (Pa-3); test: MIC, two-fold agar dilution; settings: 18 h
Experimental: as §1, §2, §3, §4

[4] = test system: Staphylococcus aureus 209P (Sa-1); test: MIC, two-fold agar dilution; settings: 18 h
Experimental: as §1, §2, §3, §4

[5] = test system: Staphylococcus aureus Terajima (Sa-33); test: MIC, two-fold agar dilution; settings: 18 h, Table 3, Mueller-Hinton agar, 10^-4 dilution
[6] = test system: Staphylococcus aureus (Sa-77), ANT(4'); test: MIC, two-fold agar dilution; settings: 18 h
[7] = test system: Staphylococcus epidermidis (Si-2), ANT (4'); test: MIC, two-fold agar dilution; settings: 18 h, Table 3, Mueller-Hinton agar, 10^-4 dilution, enzyme ANT (4')
[8] = test system: Streptococcus pneumoniae (Dp-4); test: MIC, two-fold agar dilution; settings: 18 h, Table 3, GC agar, 10^-2 dilution
[9] = test system: Escherichia coli (Ec-72), ANT(2"); test: MIC, two-fold agar dilution; settings: 18 h, Table 3, Mueller-Hinton agar, 10^-4 dilution, enzyme ANT(2")
[10] = test system: Klebsiella pneumoniae (Kp-33), AAC(3)-3; test: MIC, two-fold agar dilution; settings: 18 h, Table 3, Mueller-Hinton agar, 10^-4 dilution, enzyme AAC(3)-3
[11] = test system: Neisseria gonorrhoeae (Ng-1); test: MIC, two-fold agar dilution; settings: 18 h, Table 3, GC agar, 10^-2 dilution
[12] = test system: Sphaerophorus necrophorus (Sn-1); test: MIC against anaerobic bacteria; settings: Fusobacterium necrophorum, 18 h; Table 4; GAM Medium, pH 7
[13] = Table 3, Mueller-Hinton agar, 10^-4 dilution
[14] = pH 6, Table 6, Mueller-Hinton Agar, 10^-4 dilution, pH 6
[15] = pH 7, Table 5, Mueller-Hinton Agar, pH 7, inoculum 10^0 dil.
[16] = pH 7, Table 5, Mueller-Hinton Agar, pH 7, inoculum 10^-2 dil.
[17] = pH 7, Table 5, Mueller-Hinton Agar, pH 7, inoculum 10^-4 dil.
[18] = pH 7, Table 6, Mueller-Hinton Agar, 10^-4 dilution, pH 7
[19] = pH 7, Table 7, pH 7, 10^-4 dilution, BHIA
[20] = pH 7, Table 7, pH 7, 10^-4 dilution, HIA
[21] = pH 7, Table 7, pH 7, 10^-4 dilution, MHA
[22] = pH 7, Table 7, pH 7, 10^-4 dilution, NA
[23] = pH 8, Table 6, Mueller-Hinton Agar, 10^-4 dilution, pH 8

## C=C1OC(OC2C(CO)OC(Oc3ccc(C(=O)NCCCNCCCCNCCCCN)cc3)C2O)C(O)C(OC2OC(CO)C(OC3OC(C)C(N)C(O)C3NC(=O)C(C)N)C(O)C2O)C1O (centres unmarked) [Bu-2349A]
[1]; [13]
  MIC: 1.6 µg/mL (≈ 1.62 µM)
[1]; [14]
  MIC: 50 µg/mL (≈ 50.5 µM)
[1]; [15]
  MIC: 6.3 µg/mL (≈ 6.36 µM)
[1]; [16]
  MIC: 3.1 µg/mL (≈ 3.13 µM)
[1]; [17]
  MIC: 3.1 µg/mL (≈ 3.13 µM)
[1]; [18]
  MIC: 3.1 µg/mL (≈ 3.13 µM)
[1]; [19]
  MIC: 6.3 µg/mL (≈ 6.36 µM)
[1]; [20]
  MIC: 1.6 µg/mL (≈ 1.62 µM)
[1]; [21]
  MIC: 3.1 µg/mL (≈ 3.13 µM)
[1]; [22]
  MIC: 0.8 µg/mL (≈ 0.808 µM)
[1]; [23]
  MIC: 1.6 µg/mL (≈ 1.62 µM)
[2]; [13]
  MIC: 1.6 µg/mL (≈ 1.62 µM)
[2]; [14]
  MIC: 25 µg/mL (≈ 25.2 µM)
[2]; [15]
  MIC: 6.3 µg/mL (≈ 6.36 µM)
[2]; [16]
  MIC: 3.1 µg/mL (≈ 3.13 µM)
[2]; [17]
  MIC: 3.1 µg/mL (≈ 3.13 µM)
[2]; [18]
  MIC: 3.1 µg/mL (≈ 3.13 µM)
[2]; [19]
  MIC: 6.3 µg/mL (≈ 6.36 µM)
[2]; [20]
  MIC: 1.6 µg/mL (≈ 1.62 µM)
[2]; [21]
  MIC: 3.1 µg/mL (≈ 3.13 µM)
[2]; [22]
  MIC: 3.1 µg/mL (≈ 3.13 µM)
[2]; [23]
  MIC: 1.6 µg/mL (≈ 1.62 µM)
Proteus mirabilis (Pm-1); Proteus mirabilis, 18 h, Table 3, Mueller-Hinton agar, 10^-4 dilution, read-out: MIC
  MIC: 6.3 µg/mL (≈ 6.36 µM)
Proteus mirabilis (Pm-1); Proteus mirabilis, 18 h, pH 6, Table 6, Mueller-Hinton Agar, 10^-4 dilution, pH 6, read-out: MIC
  MIC: > 50 µg/mL
Proteus mirabilis (Pm-1); Proteus mirabilis, 18 h, pH 7
  MIC: 12.5 µg/mL (≈ 12.6 µM)
Proteus mirabilis (Pm-1); Proteus mirabilis, 18 h, pH 7, Table 5, Mueller-Hinton Agar, pH 7, inoculum 10^0 dil., read-out: MIC
  MIC: 50 µg/mL (≈ 50.5 µM)
Proteus mirabilis (Pm-1); Proteus mirabilis, 18 h, pH 7, Table 5, Mueller-Hinton Agar, pH 7, inoculum 10^-2 dil., read-out: MIC
  MIC: 25 µg/mL (≈ 25.2 µM)
Proteus mirabilis (Pm-1); Proteus mirabilis, 18 h, pH 7, Table 7, pH 7, 10^-4 dilution, HIA, read-out: MIC
  MIC: 6.3 µg/mL (≈ 6.36 µM)
Proteus mirabilis (Pm-1); Proteus mirabilis, 18 h, pH 7, Table 7, pH 7, 10^-4 dilution, MHA, read-out: MIC
  MIC: 6.3 µg/mL (≈ 6.36 µM)
Proteus mirabilis (Pm-1); Proteus mirabilis, 18 h, pH 7, Table 7, pH 7, 10^-4 dilution, NA, read-out: MIC
  MIC: 3.1 µg/mL (≈ 3.13 µM)
Proteus mirabilis (Pm-1); Proteus mirabilis, 18 h, pH 8
  MIC: 12.5 µg/mL (≈ 12.6 µM)
Proteus mirabilis (Pm-1); Table 6, Mueller-Hinton Agar, 10^-4 dilution, pH 7
  MIC: 12.5 µg/mL (≈ 12.6 µM)
Proteus mirabilis (Pm-1); Table 7, pH 7, 10^-4 dilution, BHIA
  MIC: 12.5 µg/mL (≈ 12.6 µM)
Proteus morganii (Pg-1); [13]
  MIC: 25 µg/mL (≈ 25.2 µM)
Proteus morganii (Pg-1); [14]
  MIC: > 50 µg/mL
Proteus morganii (Pg-1); [15]
  MIC: > 50 µg/mL
Proteus morganii (Pg-1); [16]
  MIC: 50 µg/mL (≈ 50.5 µM)
Proteus morganii (Pg-1); [17]
  MIC: 25 µg/mL (≈ 25.2 µM)
Proteus morganii (Pg-1); [18]
  MIC: 25 µg/mL (≈ 25.2 µM)
Proteus morganii (Pg-1); [19]
  MIC: 25 µg/mL (≈ 25.2 µM)
Proteus morganii (Pg-1); [20]
  MIC: 25 µg/mL (≈ 25.2 µM)
Proteus morganii (Pg-1); [21]
  MIC: 25 µg/mL (≈ 25.2 µM)
Proteus morganii (Pg-1); [22]
  MIC: 6.3 µg/mL (≈ 6.36 µM)
Proteus morganii (Pg-1); [23]
  MIC: 25 µg/mL (≈ 25.2 µM)
[3]; [13]
  MIC: 25 µg/mL (≈ 25.2 µM)
[3]; [14]
  MIC: > 50 µg/mL
[3]; [15]
  MIC: > 50 µg/mL
[3]; [16]
  MIC: 50 µg/mL (≈ 50.5 µM)
[3]; [17]
  MIC: 25 µg/mL (≈ 25.2 µM)
[3]; [18]
  MIC: 25 µg/mL (≈ 25.2 µM)
[3]; [19]
  MIC: 25 µg/mL (≈ 25.2 µM)
[3]; [20]
  MIC: 12.5 µg/mL (≈ 12.6 µM)
[3]; [21]
  MIC: 50 µg/mL (≈ 50.5 µM)
[3]; [22]
  MIC: 6.3 µg/mL (≈ 6.36 µM)
[3]; [23]
  MIC: 12.5 µg/mL (≈ 12.6 µM)
[4]; [13]
  MIC: 3.1 µg/mL (≈ 3.13 µM)
[4]; [14]
  MIC: 50 µg/mL (≈ 50.5 µM)
[4]; [15]
  MIC: 6.3 µg/mL (≈ 6.36 µM)
[4]; [16]
  MIC: 3.1 µg/mL (≈ 3.13 µM)
[4]; [17]
  MIC: 3.1 µg/mL (≈ 3.13 µM)
[4]; [18]
  MIC: 3.1 µg/mL (≈ 3.13 µM)
[4]; [19]
  MIC: 3.1 µg/mL (≈ 3.13 µM)
[4]; [20]
  MIC: 1.6 µg/mL (≈ 1.62 µM)
[4]; [21]
  MIC: 3.1 µg/mL (≈ 3.13 µM)
[4]; [22]
  MIC: 1.6 µg/mL (≈ 1.62 µM)
[4]; [23]
  MIC: 1.6 µg/mL (≈ 1.62 µM)
[5]
  MIC: 1.6 µg/mL (≈ 1.62 µM)
[6]
  MIC: 12.5 µg/mL (≈ 12.6 µM)
[7]
  MIC: 3.1 µg/mL (≈ 3.13 µM)
[8]
  MIC: > 100 µg/mL
[9]
  MIC: 1.6 µg/mL (≈ 1.62 µM)
[10]
  MIC: 3.1 µg/mL (≈ 3.13 µM)
[11]
  MIC: > 100 µg/mL
[12]
  MIC: > 100 µg/mL
